In publication PMC7734798 (ACS Medicinal Chemistry Letters, 2020):
Where two headings read alike, the source gives them in different places.

Legend:
[1] = test system: primary rat cerebellar granule neurons (CGNs); settings: for cell survival/death in CGNs, % mean ± SE of controls (MTT): 24 h treatment; for neurotoxicity profile in CGNs (in words): 5-50 μM, 24 h
Olig2 = assay: Oli-Neu proliferation marker Olig2 expression (Western blot); assay type: cell-based, mouse; settings: Oli-Neu cells, 5 μM, 48 h
Text: OPC proliferation and migration to the CNS injury site as well as their differentiation are critical steps toward remyelination in MS. HDAC activity plays a crucial role in OPC proliferation/differentiation; therefore, HDAC modulation is widely considered a promising therapeutic target for MS.[30] […] Therefore, we tested the effect of our compounds on OPC proliferation and differentiation, through cell counting, measure of filaments, and analysis of proliferation/differentiation markers (Figure 7).
Oli-Neu cells were grown in SATO medium (DMEM medium, 2 mM glutamine, 10 μg/ml insulin, 5.5 μg/ml transferrin, 38.72 nM sodium selenite, 100 µM putrescine, 520 nM L-thyroxine (T4), 500 nM triiodo-L-thyronine (T3), 200 nM progesterone, 25 μg/ml of gentamycin) supplemented with 1% heat-inactivated horse serum (HS) in a humidified, 5% CO2 incubator at 37°C. Cell culture medium and all chemicals were from Sigma-Aldrich, except for insulin-transferrin-sodium selenite 100X supplement (Life Technologies Corporation). Cells were plated on 96 well plates, previously coated with 10 μg/mL poly-L-lysine (Sigma-Aldrich; 10 μg/ml) at the density of 2.5 x 10 4/0.2 mL medium/well and treated with increasing concentrations of the compounds (0.5, 1, 5 and 10 μM).
After 24 hours, the viability was evaluated through the MTT assay.
Oli-Neu cells proliferation and differentiation assay
48 hours, for cell counting and measure of filaments, 5 random images for each condition were acquired with an Eclipse TS100 (Nikon) microscope using a 10X objective. Cells number and filament length were measured with Fiji ImageJ2 software. After 48 hours for proliferation and 72 hours of treatment for differentiation analysis, cells were lysed in ice-cold lysis buffer (50 mM Tris-HCl pH 7.4, 1% SDS, 0.05% protease inhibitor cocktail; all from Sigma-Aldrich) and protein content was determined by using the Lowry method. […]

SMILES	cell survival/death in CGNs, % mean ± SE of controls (MTT) ([1]; 5 μM)	cell survival/death in CGNs, % mean ± SE of controls (MTT) ([1]; 10 μM)	cell survival/death in CGNs, % mean ± SE of controls (MTT) ([1]; 25 μM)	cell survival/death in CGNs, % mean ± SE of controls (MTT) ([1]; 50 μM)	neurotoxicity profile in CGNs (in words) [1]	expression of Olig2, marker of OPCs proliferation (Olig2)
CC/C=C\C/C=C\C/C=C\CCCCCCCC(=O)NCCNC(=O)C(CCC)CCC [compound 1]	98 ± 18%	107 ± 3%	89 ± 14%	99 ± 15%	low neurotoxicity profile	marked decrease
CC/C=C\C/C=C\C/C=C\CCCCCCCC(=O)NCCOC(=O)C(CCC)CCC [compound 2]	97 ± 16%	110 ± 3%	96 ± 15%	85 ± 14%	low neurotoxicity profile	marked decrease
